Measurements from patent US11407719B2, “Anti-inflammatory agents” (Resverlogix Corp., priority 2009, dated 2022).

How the values were obtained:
hIL-6 mRNA = assay: Quantification of hIL-6 mRNA; format: cell-based, human; set-up: key: Active: an active compound is one that causes a ≥20% inhibition in IL-6 mRNA at a concentration less than or equal to 10 μM; conditions: IL-6 mRNA by real-time PCR; differentiated U937 cells, 1 h pretreatment, lipopolysaccharide stimulation 3 h; concentration ≤10 μM
Method: In this example, […] in tissue culture cells was quantitated to measure the transcriptional inhibition of hIL-6 when treated with a compound of the invention.
A human leukemic monocyte lymphoma cell line (U937) was plated (3.2×10^5 cells per well) in a 96-well plate in 100 μL RPMI-1640, and differentiated for 3 days prior to the addition of the compound of interest. The cells were pretreated for 1 h with the test compound prior to stimulation with lipolysaccharide from Escherichia coli. The cells were incubated at 37° C. for 3 h before the cells were harvested. At time of harvest, the spent media was removed from the cells and the cells were rinsed in 200 μL PBS. Cell lysis solution (70 μL) was added the cells in each well and incubated for 5-10 min at room temperature, to allow for complete cell lysis and detachment. mRNA was then prepared using the “mRNA Catcher PLUS plate” (Invitrogen), according to the protocol supplied. After the last wash, as much wash buffer as possible was aspirated without allowing the wells to dry. Elution buffer (E3, 70 μL) was then added to each well. mRNA was then eluted by incubating the mRNA Catcher PLUS plate with Elution Buffer for 5 min at 68° C. and then immediately placing the plate on ice.
(§1) The eluted mRNA isolated was then used in a one-step quantitative real-time PCR reaction, using components of the Ultra Sense Kit together with Applied Biosystems primer-probe mixes. Real-time PCR data was analyzed, normalizing the Ct values for hIL-6 to an internal control, prior to determining the fold induction of each unknown sample, relative to the control.

VCAM-1 mRNA = assay: Quantification of hVCAM mRNA; format: cell-based, human; set-up: key: Active: an active compound is one that causes a ≥20% inhibition in VCAM-1 mRNA at a concentration less than or equal to 10 μM; -1 mRNA at a concentration less than or equal to 10 μM; conditions: VCAM-1 mRNA by real-time PCR; HUVECs, 1 h pretreatment, tumor necrosis factor-α stimulation 24 h; concentration ≤10 μM
Method: In this example, […] in tissue culture cells was quantitated to measure the transcriptional inhibition of hVCAM when treated with a compound of the invention.
Human umbilical vein endothelial cells (HUVECs) were plated in a 96-well plate (4.0×10^3 cells/well) in 100 μL EGM media and incubated for 24 h prior to the addition of the compound of interest. The cells were pretreated for 1 h with the test compound prior to stimulation with tumor necrosis factor-α. The cells were incubated for an additional 24 h before the cells were harvested. At time of harvest, the spent media was removed from the HUVECs and rinsed in 200 μL PBS. Cell lysis solution (70 μL) was then added the cells in each well and incubated for ˜5-10 min at room temperature, to allow for complete cell lysis and detachment. mRNA was then prepared using the “mRNA Catcher PLUS plate” (Invitrogen), according to the protocol supplied. After the last wash, as much wash buffer as possible was aspirated without allowing the wells to dry. Elution buffer (E3, 70 μL) was then added to each well. mRNA was then eluted by incubating the mRNA Catcher PLUS plate with elution buffer for 5 min at 68° C. and then immediately placing the plate on ice.
as §1, with “mRNA so” for “mRNA”, “hVCAM” for “hIL-6”

For COc1cc(OC)c2c(=O)[nH]c(-c3cc(C)c(OCCN4Cc5ccccc5C4)c(C)c3)nc2c1 [2-(4-(2-(Isoindolin-2-yl)ethoxy)-3,5-dimethylphenyl)-5,7-dimethoxyquinazolin-4(3H)-one], the “Inhibition of IL-6 expression” value (hIL-6 mRNA) was “Active” and the “Inhibition of VCAM-1 expression” value (VCAM-1 mRNA) was “Active”.

For COc1cc(OC)c2c(=O)[nH]c(-c3ccc(N4CCN(C(=O)c5ccc(F)cc5)CC4)cc3)nc2c1 [2-(4-(4-(4-Fluorobenzoyl)piperazin-1-yl)phenyl)-5,7-dimethoxyquinazolin-4(3H)-one], the “Inhibition of IL-6 expression” value (hIL-6 mRNA) was “Active” and the “Inhibition of VCAM-1 expression” value (VCAM-1 mRNA) was “Active”.

In the case of COc1cc(OC)c2c(=O)[nH]c(-c3ccc(N4C[C@@H](C)N(C(C)=O)[C@@H](C)C4)cc3)nc2c1 [2-(4-((3R,5S)-4-Acetyl-3,5-dimethylpiperazin-1-yl)phenyl)-5,7-dimethoxyquinazolin-4(3H)-one], the “Inhibition of IL-6 expression” value (hIL-6 mRNA) is reported as “Active” and the “Inhibition of VCAM-1 expression” value (VCAM-1 mRNA) is reported as “Active”.

For Cc1cc(-c2nc3ccccc3c(=O)[nH]2)cc(C)c1OCCN1CCOCC1 [2-(3,5-dimethyl-4-(2-morpholinoethoxy)phenyl)quinazolin-4(3H)-one], the “Inhibition of IL-6 expression” value (hIL-6 mRNA) was “Active” and the “Inhibition of VCAM-1 expression” value (VCAM-1 mRNA) was “Active”.

With COc1cc(OC)c2c(=O)[nH]c(-c3ccc(N4CCN(C(=O)c5cc(Cl)sc5Cl)CC4)cc3)nc2c1 [2-(4-(4-(2,5-Dichlorothiophene-3-carbonyl)piperazin-1-yl)phenyl)-5,7-dimethoxyquinazolin-4(3H)-one] the “Inhibition of IL-6 expression” value (hIL-6 mRNA) was “Active” and the “Inhibition of VCAM-1 expression” value (VCAM-1 mRNA) was “Active”.

In the case of Cc1cc(-c2nc3cc(F)cc(F)c3c(=O)[nH]2)cc(C)c1OCCN1CCCC1 [2-(3,5-Dimethyl-4-(2-(pyrrolidin-1-yl)ethoxy)phenyl)-5,7-difluoroquinazolin-4(3H)-one], the “Inhibition of IL-6 expression” value (hIL-6 mRNA) is reported as “Active” and the “Inhibition of VCAM-1 expression” value (VCAM-1 mRNA) is reported as “Active”.

COc1cccc2c(=O)[nH]c(-c3ccc(N4CCN(C(C)C)CC4)cc3)nc12 [2-(4-(4-Isopropylpiperazin-1-yl)phenyl)-8-methoxyquinazolin-4(3H)-one] was tested, and the “Inhibition of IL-6 expression” value (hIL-6 mRNA) was “Active” and the “Inhibition of VCAM-1 expression” value (VCAM-1 mRNA) was “Active”.

COc1cc(OC)cc(-c2nc3cc(OC)cc(OC)c3c(=O)[nH]2)c1 [2-(3,5-dimethoxyphenyl)-5,7-dimethoxyquinazolin-4(3H)-one] was tested, and the “Inhibition of IL-6 expression” value (hIL-6 mRNA) was “Active” and the “Inhibition of VCAM-1 expression” value (VCAM-1 mRNA) was “Active”.

COc1cc(OC)c2c(=O)[nH]c(-c3ccc(N4CCC(NC(=O)c5ccccc5)CC4)cc3)nc2c1 [N-(1-(4-(5,7-Dimethoxy-4-oxo-3,4-dihydroquinazolin-2-yl)phenyl)piperidin-4-yl)benzamide] was tested, and the “Inhibition of IL-6 expression” value (hIL-6 mRNA) was “Active” and the “Inhibition of VCAM-1 expression” value (VCAM-1 mRNA) was “Active”.

With COc1cc(OC)c2c(=O)[nH]c(-c3cc(C)c(OCCN4CCCCC4)c(C)c3)nc2c1 [2-(3,5-Dimethyl-4-(2-(piperidin-1-yl)ethoxy)phenyl)-5,7-dimethoxyquinazolin-4(3H)-one] the “Inhibition of IL-6 expression” value (hIL-6 mRNA) was “Active” and the “Inhibition of VCAM-1 expression” value (VCAM-1 mRNA) was “Active”.

With COc1cc(OC)c2c(=O)[nH]c(-c3ccc(N4CCN(C(C)=O)C(C)C4)cc3)nc2c1 (stereo not drawn) [2-(4-(4-Acetyl-3-methylpiperazin-1-yl)phenyl)-5,7-dimethoxyquinazolin-4(3H)-one] the “Inhibition of IL-6 expression” value (hIL-6 mRNA) was “Active” and the “Inhibition of VCAM-1 expression” value (VCAM-1 mRNA) was “Active”.

In the case of O=c1[nH]c(-c2ccc(N3CCN(CC(F)(F)F)CC3)cc2)nc2ccccc12 [2-(4-(4-(2,2,2-Trifluoroethyl)piperazin-1-yl)phenyl)quinazolin-4(3H)-one], the “Inhibition of IL-6 expression” value (hIL-6 mRNA) is reported as “Active” and the “Inhibition of VCAM-1 expression” value (VCAM-1 mRNA) is reported as “Inactive”.

For COc1cccc(-c2nc3cc(OC)cc(OC)c3c(=O)[nH]2)c1 [5,7-Dimethoxy-2-(3-methoxyphenyl)quinazolin-4(3H)-one], the “Inhibition of IL-6 expression” value (hIL-6 mRNA) was “Active” and the “Inhibition of VCAM-1 expression” value (VCAM-1 mRNA) was “Active”.

With COc1cc(OC)c2c(=O)[nH]c(-c3cc(C)c(OCCN4C(=O)c5ccccc5C4=O)c(C)c3)nc2c1 [2-(2-(4-(5,7-dimethoxy-4-oxo-3,4-dihydroquinazolin-2-yl)-2,6-dimethylphenoxy)ethyl)isoindoline-1,3-dione] the “Inhibition of IL-6 expression” value (hIL-6 mRNA) was “Active” and the “Inhibition of VCAM-1 expression” value (VCAM-1 mRNA) was “Active”.

In the case of COc1cc(OC)c2c(=O)[nH]c(-c3ccc(Nc4cccnc4)cc3)nc2c1 [5,7-Dimethoxy-2-(4-(pyridin-3-ylamino)phenyl)quinazolin-4(3H)-one], the “Inhibition of IL-6 expression” value (hIL-6 mRNA) is reported as “Active” and the “Inhibition of VCAM-1 expression” value (VCAM-1 mRNA) is reported as “Active”.

For COc1cc(OC)c2c(=O)[nH]c(-c3ccc(N4CCC(NC(C)=O)C4)cc3)nc2c1 (stereo not drawn) [N-(1-(4-(5,7-Dimethoxy-4-oxo-3,4-dihydroquinazolin-2-yl)phenyl)pyrrolidin-3-yl)acetamide], the “Inhibition of IL-6 expression” value (hIL-6 mRNA) was “Active” and the “Inhibition of VCAM-1 expression” value (VCAM-1 mRNA) was “Active”.

For COc1cc(OC)c2c(=O)[nH]c(-c3ccc(N4CCCN(C)CC4)cc3)nc2c1 [5,7-Dimethoxy-2-(4-(4-methyl-1,4-diazepan-1-yl)phenyl)quinazolin-4(3H)-one], the “Inhibition of IL-6 expression” value (hIL-6 mRNA) was “Active” and the “Inhibition of VCAM-1 expression” value (VCAM-1 mRNA) was “Active”.

COc1cc(OC)c2c(=O)[nH]c(-c3ccc(N4CCCNCC4)cc3)nc2c1 [2-(4-(1,4-Diazepan-1-yl)phenyl)-5,7-dimethoxyquinazolin-4(3H)-one] was tested, and the “Inhibition of IL-6 expression” value (hIL-6 mRNA) was “Active” and the “Inhibition of VCAM-1 expression” value (VCAM-1 mRNA) was “Active”.

For CCN1CCN(Cc2ccc(-c3nc4cc(OC)cc(OC)c4c(=O)[nH]3)cc2)CC1 [2-(4-((4-ethylpiperazin-1-yl)methyl)phenyl)-5,7-dimethoxyquinazolin-4(3H)-one], the “Inhibition of IL-6 expression” value (hIL-6 mRNA) was “Active” and the “Inhibition of VCAM-1 expression” value (VCAM-1 mRNA) was “Active”.

With COc1cc(OC)c2c(=O)[nH]c(-c3cc(C)c(OCCN4CCOCC4)c(C)c3)cc2n1 [7-(3,5-dimethyl-4-(2-morpholinoethoxy)phenyl)-2,4-dimethoxy-1,6-naphthyridin-5(6H)-one] the “Inhibition of IL-6 expression” value (hIL-6 mRNA) was “Active” and the “Inhibition of VCAM-1 expression” value (VCAM-1 mRNA) was “Active”.

In the case of COc1cc2nc(-c3ccc(N(C)C)c4ccccc34)[nH]c(=O)c2cc1OC [2-(4-(dimethylamino)naphthalen-1-yl)-6,7-dimethoxyquinazolin-4(3H)-one], the “Inhibition of IL-6 expression” value (hIL-6 mRNA) is reported as “Active” and the “Inhibition of VCAM-1 expression” value (VCAM-1 mRNA) is reported as “Active”.

For COc1cc(OC)c2c(=O)[nH]c(-c3ccc(N4CCN(C(=O)c5ccccc5)CC4)cc3)nc2c1 [2-(4-(4-Benzoylpiperazin-1-yl)phenyl)-5,7-dimethoxyquinazolin-4(3H)-one], the “Inhibition of IL-6 expression” value (hIL-6 mRNA) was “Active” and the “Inhibition of VCAM-1 expression” value (VCAM-1 mRNA) was “Active”.

With COc1cc(OC)c2c(=O)[nH]c(-c3ccc(N4CCN(C(=O)C5CC5)CC4)cc3)nc2c1 [2-(4-(4-(Cyclopropanecarbonyl)piperazin-1-yl)phenyl)-5,7-dimethoxyquinazolin-4(3H)-one] the “Inhibition of IL-6 expression” value (hIL-6 mRNA) was “Active” and the “Inhibition of VCAM-1 expression” value (VCAM-1 mRNA) was “Active”.

In the case of COc1cc(OC)c2c(=O)[nH]c(-c3ccc(N4CCN(C(=O)CC(F)(F)F)CC4)cc3)nc2c1 [5,7-Dimethoxy-2-(4-(4-(3,3,3-trifluoropropanoyl)piperazin-1-yl)phenyl)quinazolin-4(3H)-one], the “Inhibition of IL-6 expression” value (hIL-6 mRNA) is reported as “Active” and the “Inhibition of VCAM-1 expression” value (VCAM-1 mRNA) is reported as “Active”.

With CCCCN1CCN(c2ccc(-c3nc4cc(OC)cc(OC)c4c(=O)[nH]3)cc2)CC1 [2-(4-(4-butylpiperazin-1-yl)phenyl)-5,7-dimethoxyquinazolin-4(3H)-one] the “Inhibition of IL-6 expression” value (hIL-6 mRNA) was “Active” and the “Inhibition of VCAM-1 expression” value (VCAM-1 mRNA) was “Active”.

In the case of COc1cc(OC)c2c(=O)[nH]c(-c3cc(C)c(OCCN4C(=O)CCC4=O)c(C)c3)nc2c1 [1-(2-(4-(5,7-Dimethoxy-4-oxo-3,4-dihydroquinazolin-2-yl)-2,6-dimethylphenoxy)ethyl)pyrrolidine-2,5-dione], the “Inhibition of IL-6 expression” value (hIL-6 mRNA) is reported as “Active” and the “Inhibition of VCAM-1 expression” value (VCAM-1 mRNA) is reported as “Active”.

With COc1cc(OC)c2c(=O)[nH]c(-c3ccc(N4CCN(C(C)C)CC4)cc3)nc2c1 [2-(4-(4-Isopropylpiperazin-1-yl)phenyl)-5,7-dimethoxyquinazolin-4(3H)-one] the “Inhibition of IL-6 expression” value (hIL-6 mRNA) was “Active” and the “Inhibition of VCAM-1 expression” value (VCAM-1 mRNA) was “Active”.
